# From ChEMBL document CHEMBL3739423, “Synthesis, biological evaluation and mechanism study of a class of benzylideneindanone derivatives as novel anticancer agents” (Medchemcomm, 2015)
# Active and inactive are the calls of the source. The rule behind the calls is not given here.
# How the values were obtained:
# [1] = system: A549; assay: Antiproliferative activity against human A549 cells after 48 hrs by MTT assay; type: functional; details: A549, 48 h
# [2] = system: MDA-MB-231; assay: Antiproliferative activity against human MDA-MB-231 cells after 48 hrs by MTT assay; type: functional; details: MDA-MB-231, 48 h
# [3] = Antiproliferative activity against human PC3 cells after 48 hrs by MTT assay; type: functional; details: PC-3, 48 h
# [4] = system: HeLa; assay: Antiproliferative activity against human HeLa cells after 48 hrs by MTT assay; type: functional
# [5] = Antiproliferative activity against human Bel7402 cells after 48 hrs by MTT assay; type: functional; details: Bel-7402, 48 h
# [6] = biological target: Tubulin; assay: Inhibition of tubulin polymerization (unknown origin) by fluorescence analysis; type: protein-complex assay, Homo sapiens
# [7] = system: HeLa; assay: Induction of apoptosis in human HeLa cells assessed as early apoptotic cells at 0.5 uM after 48 hrs by annexin-v-PI staining based flow cytometry (reference value: 1.44%); type: functional
# [8] = system: HeLa; assay: Induction of apoptosis in human HeLa cells assessed as late apoptotic cells at 0.5 uM after 48 hrs by annexin-v-PI staining based flow cytometry (reference value: 0.08%); type: functional
# [9] = system: HeLa; assay: Induction of microtubule disruption in human HeLa cells assessed as microtubule heavily shrunk around centre of cells at 0.5 microM after 48 hrs by hoechst-33342-staining based confocal microscopy analysis; type: cell-based
# [10] = system: HeLa; assay: Cell cycle arrest in human HeLa cells assessed as accumulation at G2/M phase at 0.5 microM after 48 hrs by flow cytometry; type: functional
# [11] = system: HeLa; assay: Induction of apoptosis in human HeLa cells assessed as early apoptotic cells at 0.05 uM after 48 hrs by annexin-v-PI staining based flow cytometry (reference value: 1.44%); type: functional
# [12] = system: HeLa; assay: Induction of apoptosis in human HeLa cells assessed as late necrotic cells at 0.1 uM after 48 hrs by annexin-v-PI staining based flow cytometry (reference value: 0.09%); type: functional
# [13] = system: HeLa; assay: Induction of apoptosis in human HeLa cells assessed as late necrotic cells at 0.5 uM after 48 hrs by annexin-v-PI staining based flow cytometry (reference value: 0.09%); type: functional
# [14] = system: HeLa; assay: Induction of microtubule disruption in human HeLa cells assessed as destabilized microtubule network at 0.05,0.1, 0.5 microM after 48 hrs by hoechst-33342-staining based confocal microscopy analysis; type: cell-based
# [15] = system: HeLa; assay: Induction of apoptosis in human HeLa cells assessed as viable cells at 0.5 uM after 48 hrs by annexin-v-PI staining based flow cytometry (reference value: 98.4%); type: functional; details: read-out: Activity
# [16] = system: HeLa; assay: Induction of apoptosis in human HeLa cells assessed as viable cells at 0.05 uM after 48 hrs by annexin-v-PI staining based flow cytometry (reference value: 98.4%); type: functional; details: read-out: Activity
# [17] = system: HeLa; assay: Cell cycle arrest in human HeLa cells assessed as accumulation at G2/M phase at 0.1 microM after 48 hrs by flow cytometry; type: functional
# [18] = system: HeLa; assay: Cell cycle arrest in human HeLa cells assessed as accumulation at G2/M phase after 48 hrs by flow cytometry; type: functional, cell-based
# [19] = system: HeLa; assay: Cell cycle arrest in human HeLa cells assessed as accumulation at G2/M phase at 0.05 microM after 48 hrs by flow cytometry; type: functional
# [20] = system: HeLa; assay: Induction of apoptosis in human HeLa cells assessed as late apoptotic cells at 0.05 uM after 48 hrs by annexin-v-PI staining based flow cytometry (reference value: 0.08%); type: functional
# [21] = system: HeLa; assay: Induction of microtubule disruption in human HeLa cells assessed as irregular cytoplasm and chromosomes at 0.5 microM after 48 hrs by hoechst-33342-staining based confocal microscopy analysis; type: cell-based
# [22] = system: HeLa; assay: Induction of apoptosis in human HeLa cells assessed as late necrotic cells at 0.05 uM after 48 hrs by annexin-v-PI staining based flow cytometry (reference value: 0.09%); type: functional
# [23] = system: HeLa; assay: Induction of apoptosis in human HeLa cells assessed as late apoptotic cells at 0.1 uM after 48 hrs by annexin-v-PI staining based flow cytometry (reference value: 0.08%); type: functional
# [24] = system: HeLa; assay: Induction of apoptosis in human HeLa cells after 48 hrs by annexin-v-PI staining based flow cytometry; type: functional, cell-based
# [25] = system: HeLa; assay: Induction of apoptosis in human HeLa cells assessed as viable cells at 0.1 uM after 48 hrs by annexin-v-PI staining based flow cytometry (reference value: 98.4%); type: functional; details: read-out: Activity
# [26] = system: HeLa; assay: Induction of apoptosis in human HeLa cells assessed as early apoptotic cells at 0.1 uM after 48 hrs by annexin-v-PI staining based flow cytometry (reference value: 1.44%); type: functional
smiles,measurement,setting,value
COc1cc2c(cc1OC)C(=O)/C(=C/c1cc(OC)c(OC)c(OC)c1)C2,GI50,[1],> 10 µM
same,GI50,[2],> 10 µM
same,GI50,[3],> 10 µM
same,GI50,[4],> 10 µM
same,GI50,[5],> 10 µM
COc1ccc(/C=C\c2cc(OC)c(OC)c(OC)c2)cc1O [COMBRETASTATIN A4],GI50,[1],0.018 µM
same,GI50,[2],0.021 µM
same,GI50,[3],0.014 µM
same,GI50,[4],0.0028 µM
same,GI50,[5],0.012 µM
COc1ccc(/C=C2\CCc3c(cc(OC)c(OC)c3OC)C2=O)cc1,GI50,[1],18.9 µM
same,GI50,[2],38.7 µM
same,GI50,[3],19.6 µM
same,GI50,[4],12.4 µM
same,GI50,[5],25.4 µM
COc1cc2c(c(OC)c1OC)C/C(=C\c1cc(OC)c(OC)c(OC)c1OC)C2=O,GI50,[1],> 10 µM
same,GI50,[2],> 10 µM
same,GI50,[3],> 10 µM
same,GI50,[4],> 10 µM
same,GI50,[5],> 10 µM
COc1ccc(/C=C2\Cc3c(cc(OC)c(OC)c3OC)C2=O)cc1Br,GI50,[1],0.41 µM
same,GI50,[2],0.678 µM
same,IC50,[6],9.05 µM
same,GI50,[3],0.389 µM
same,GI50,[4],0.356 µM
same,GI50,[5],0.563 µM
COc1ccc(/C=C2\Cc3cc(OC)c(OC)c(OC)c3C2=O)cc1N,GI50,[1],> 10 µM
same,GI50,[2],> 10 µM
same,GI50,[3],> 10 µM
same,GI50,[4],> 10 µM
same,GI50,[5],> 10 µM
COc1cc2c(cc1OC)C(=O)/C(=C/c1ccc(OC)c(OC)c1OC)C2,GI50,[1],> 10 µM
same,GI50,[2],> 10 µM
same,GI50,[3],> 10 µM
same,GI50,[4],> 10 µM
same,GI50,[5],> 10 µM
COc1ccc(/C=C2\Cc3c(cc(OC)c(OC)c3OC)C2=O)cc1[N+](=O)[O-],GI50,[1],0.77 µM
same,GI50,[2],3.49 µM
same,GI50,[3],1.56 µM
same,GI50,[4],0.79 µM
same,GI50,[5],0.95 µM
COc1ccc(/C=C2\CCc3c(cc(OC)c(OC)c3OC)C2=O)cc1F,GI50,[1],15.4 µM
same,GI50,[2],29.4 µM
same,GI50,[3],27.6 µM
same,GI50,[4],10.2 µM
same,GI50,[5],19.3 µM
COc1cc(/C=C2\Cc3cc(OC)c(OC)c(OC)c3C2=O)cc(OC)c1OC,GI50,[1],> 10 µM
same,GI50,[2],> 10 µM
same,GI50,[3],> 10 µM
same,GI50,[4],> 10 µM
same,GI50,[5],> 10 µM
COc1ccc(/C=C2\Cc3c(cc(OC)c(OC)c3OC)C2=O)cc1O,Activity,[7],42.4%
same,Activity,[8],12.6%
same,Activity,[9],Active
same,Activity,[10],46.1%
same,Activity,[11],6.98%
same,GI50,[1],0.249 µM
same,Activity,[12],1.03%
same,Activity,[13],4.4%
same,GI50,[2],0.57 µM
same,Activity,[14],Active
same,IC50,[6],7.56 µM
same,viability at 0.5 µM,[15],40.6%
same,viability at 0.05 µM,[16],91.8%
same,Activity,[17],35.2%
same,Activity,[18],Dose-dependent effect
same,Activity,[19],23.2%
same,Activity,[20],0.82%
same,Activity,[21],Active
same,Activity,[22],0.38%
same,Activity,[23],2.57%
same,GI50,[3],0.213 µM
same,GI50,[4],0.172 µM
same,Activity,[24],Dose-dependent effect
same,viability at 0.1 µM,[25],77.4%
same,GI50,[5],0.307 µM
same,Activity,[26],19%
